The source of these data is US4818761A, “2-(4-pyridylaminomethyl)-benzimidazole derivatives having antiviral activity” (priority 1986, dated 1989).

In brackets after ≈: the same amount, converted by molar mass.

Data set [1] concerns poliovirus type 2 (Polio2). Nature of the data set: microbe, parasite or virus in culture. The conditions noted are these: for IC50: Enterovirus C, LLC-MK2, read-out: IC50 Polio2; for CI Polio2 (C)/(A): CI = CD50 (LLC-MK2)/IC50 (plaque). The format is cell-based.
Data set [2] has as its system enterovirus type 70 (EV70). In words: Inhibition of EV70 plaque formation in LLC-MK2 cells. To be noted: for CI EV70 (C)/(A): CI = CD50 (LLC-MK2)/IC50 (plaque); for IC50: Enterovirus D, plaque reduction, LLC-MK2 cells, 33° C. The format is cell-based.
The nature of data set [3]: in vitro. The conditions noted are these: monkey, llc-mk2 cells.
For data set [4], the system named is coxsackievirus type B4 (CB4). Nature of the data set: Inhibition of CB4 plaque formation in LLC-MK2 cells. It counts as cell-based. To be noted: for CI CB4 (C)/(A): CI = CD50 (LLC-MK2)/IC50 (plaque); for IC50: Coxsackievirus, plaque reduction, LLC-MK2 cells, 37° C.
The nature of data set [5]: in vitro. The conditions noted are these: human, hela cells.
In data set [6] the test system is rhinovirus type 14 (HRV14). Nature of the data set: Inhibition of HRV14 cytopathogenic effect (CPE) in HeLa cells. It counts as cell-based. The conditions noted are these: for IC50: Enterovirus, HRV14, * Virus CPE inhibition assay, HeLa cells, 33° C.; for CI HRV14 (D)/(B): CI = CD50 (HeLa)/IC50 (virus CPE). On the technique in general: Damage to the host cells serves as the signal in cytopathic effect assays.

Data set [7] has as its system enterovirus type 70 (EV70). Nature of the data set: Inhibition of EV70 cytopathogenic effect (CPE) in LLC-MK2 cells. The conditions noted are these: for IC50: Enterovirus D, * Virus CPE inhibition assay, LLC-MK2 cells, 33° C.; for CI EV70 (C)/(A): CI = CD50 (LLC-MK2)/IC50 (virus CPE). It counts as cell-based.
The subject of data set [8] is coxsackievirus type B4 (CB4). Nature of the data set: Inhibition of CB4 cytopathogenic effect (CPE) in LLC-MK2 cells. The format is cell-based. The conditions noted are these: for IC50: Coxsackievirus, * Virus CPE inhibition assay, LLC-MK2 cells, 37° C.; for CI CB4 (C)/(A): CI = CD50 (LLC-MK2)/IC50 (virus CPE).
In a further data set the test system is CB4 strain 637. In words: Anti-coxsackievirus activity in vivo, CB4-induced hypoglycemia in SJL/J mice. To be noted: single, daily intraperitoneal doses as low as 20 mg/kg, initiated 2 hr after infection and continued for 5 days. The procedure:
Anti-coxsackievirus activity, in vivo. Compound No. XII and XXI were examined for its activity against CB4-induced hypoglycemia in SJL/J mice. […] Blood specimens were collected from the tail vein of each mouse before and 2, 3, 4 and 5 days after infection for assaying its plasma glucose levels. The differences in mean relative plasma glucose of uninfected control and compound-treated groups or placebo groups were evaluated by Student's t-test.

Data set [9] has as its system rhinovirus type 14 (HRV14). Nature of the data set: Inhibition of HRV14 plaque formation in HeLa cells. The format is cell-based. To be noted: for IC50: Enterovirus, HRV14, plaque reduction, HeLa cells, 33° C.
Data set [10] is described as follows: Cytotoxicity, morphology of LLC-MK2 cells. To be noted: monkey.
A short description of data set [11]: Cytotoxicity, morphology of HeLa cells. The conditions noted are these: human.

For the compound `CCOc1ccc2[nH]c(CNc3ccncc3)nc2c1` [IV], the IC50 was 460 µg/mL (≈ 1710 µM) in data set [1], 39 µg/mL (≈ 145 µM) in data set [2], 93 µg/mL (≈ 347 µM) in [4] and more than 100 µg/mL in data set [6]. Also, the “CI EV70 (C)/(A)” value in [2] is more than 3. The CC50 in “in vitro [3]” and in the data set “in vitro [5]” was more than 100 µg/mL each time. In addition, the “CI CB4 (C)/(A)” value in data set [4] was more than 1.

In the case of `CCOCCn1c(CNc2ccncc2)nc2ccccc21` [LIV], the IC50 in [7], in data set [8] and in data set [6] was more than 100 µg/mL throughout. Moreover, in “in vitro [3]”, the CC50 was more than 2000 µg/mL.

Consider `Cl.Fc1cccc(-n2c(CNc3ccncc3)nc3ccccc32)c1` [LVIII, 1-(3-fluorophenyl)-2-(4-pyridylaminomethyl)benzimidazole hydrochloride], for which the IC50 was more than 100 µg/mL in [1], 5 µg/mL in data set [2], 3.6 µg/mL in data set [4] and more than 100 µg/mL in data set [6]. The “CI EV70 (C)/(A)” value in data set [2] was more than 200. For the same compound, the CC50 in “in vitro [3]” is more than 1000 µg/mL; in the data set “in vitro [5]”, more than 100 µg/mL. Moreover, in data set [4], the “CI CB4 (C)/(A)” value was more than 278.

With `Fc1ccccc1-n1c(CNc2ccncc2)nc2ccccc21` [LVII], the IC50 in data set [1] was more than 100 µg/mL; in [2] it was 24.1 µg/mL (≈ 75.7 µM); in data set [4], 8.6 µg/mL (≈ 27 µM); in [6], more than 100 µg/mL. For the same compound, in [2], the “CI EV70 (C)/(A)” value came out at 83. For the same compound, the figures for the cytotoxic concentration (CC50) in “in vitro [3]” and in the data set “in vitro [5]” were 2000 µg/mL (≈ 6280 µM) and more than 100 µg/mL, respectively. Moreover, the “CI CB4 (C)/(A)” value in data set [4] is given as 233.

`CCc1ccccc1-n1c(CNc2ccncc2)nc2ccccc21` [LXV]: the IC50 in data set [7], in data set [8] and in data set [6] was more than 100 µg/mL in each case. For the same compound, the CC50 in “in vitro [3]” and in the data set “in vitro [5]” was more than 100 µg/mL in each case.

For the compound `c1ccc2c(c1)nc(CNc1ccncc1)n2-c1nccs1` [LXXIII], the IC50 in data set [7], in data set [8] and in [6] was more than 100 µg/mL throughout. The CC50 in “in vitro [3]” and in “in vitro [5]” was more than 100 µg/mL each time.

As for `CCc1cc2c(cc1Cl)nc(CNc1ccncc1)n2-c1ccccc1` [LXXV, 1-phenyl-2-(4-pyridylaminomethyl)-5-chloro-6-ethylbenzimidazole], the “CI EV70 (C)/(A)” value in data set [7] is more than 2. For the same compound, the figures for the IC50 in data set [7], in data set [8] and in data set [6] were more than 56.2 µg/mL, more than 100 µg/mL and 5.6 µg/mL (≈ 15.4 µM), respectively. Further, the figures for the CC50 in “in vitro [3]” and in the data set “in vitro [5]” were more than 100 µg/mL and 17.8 µg/mL (≈ 49.1 µM), respectively. The “CI HRV14 (D)/(B)” value in [6] was determined as 3.

On to `CCCn1c(CNc2ccncc2)nc2ccccc21` [XII], for which, in [1], the “CI Polio2 (C)/(A)” value was more than 556 and the half-inhibitory concentration (IC50) was 3.6 µg/mL (≈ 13.5 µM). Moreover, in data set [2], the “CI EV70 (C)/(A)” value is more than 465 and the half-inhibitory concentration (IC50) turned out to be 4.3 µg/mL (≈ 16.1 µM). Besides, the “onset of CB4-induced hypoglycemia” value in the data set on CB4 strain 637 was “inhibited the onset of CB4-induced hypoglycemia”. The compound further came in with a CC50 in the data set “in vitro [3]” of more than 2000 µg/mL. Besides, in [4], the “CI CB4 (C)/(A)” value is > 4,255 and the IC50 amounted to 0.47 µg/mL (≈ 1.76 µM). Further, in data set [9], the IC50 was more than 50 µg/mL.

In the case of `Cc1ccc2nc(CNc3ccncc3)n(-c3ccccc3)c2c1` [XLIII], the “CI EV70 (C)/(A)” value in data set [7] is recorded as more than 6. Further, the IC50 in [7] was 17.8 µg/mL (≈ 56.6 µM); in data set [8], 3.2 µg/mL (≈ 10.2 µM); in data set [6] it was more than 100 µg/mL. The CC50 in the data set “in vitro [3]” and in the data set “in vitro [5]” was more than 100 µg/mL each time. Moreover, the “CI CB4 (C)/(A)” value in data set [8] was more than 31.

With `CCc1ccc2c(c1)nc(CNc1ccncc1)n2-c1ccccc1` [XLIV], in data set [7], the “CI EV70 (C)/(A)” value was more than 31 and the concentration for half-maximal inhibition (IC50) was found to be 3.2 µg/mL (≈ 9.74 µM). Besides, the 50% cytotoxic concentration (CC50) in “in vitro [3]” was more than 100 µg/mL. Besides, in data set [8], the “CI CB4 (C)/(A)” value is reported as more than 15 and the IC50 amounted to 6.8 µg/mL (≈ 20.7 µM). The CC50 in “in vitro [5]” was more than 100 µg/mL. In data set [6], the “CI HRV14 (D)/(B)” value is on record as more than 6 and the IC50 amounted to 17.8 µg/mL (≈ 54.2 µM).

For the compound `Fc1ccc2nc(CNc3ccncc3)n(-c3ccccc3)c2c1` [XLVIII], the half-inhibitory concentration (IC50) in data set [7] and in data set [8] was more than 100 µg/mL in each case. The compound also registered a cytotoxic concentration (CC50) in [10] of more than 100 µg/mL.

For `CCc1ccc2nc(CNc3ccncc3)n(-c3ccccc3)c2c1` [XLV], the IC50 is more than 100 µg/mL in data set [1], 1.6 µg/mL (≈ 4.87 µM) in data set [2], 5 µg/mL (≈ 15.2 µM) in [4] and 5.6 µg/mL (≈ 17.1 µM) in data set [6]. The “CI EV70 (C)/(A)” value in data set [2] is 35. Moreover, the CC50 in “in vitro [3]” and in the data set “in vitro [5]” was 56.2 µg/mL (≈ 171 µM) throughout. In addition, the “CI CB4 (C)/(A)” value in data set [4] is on record as 11. In [6], the “CI HRV14 (D)/(B)” value stood at 10.

Consider `Cc1cc2nc(CNc3ccncc3)[nH]c2cc1Br` [XXVIII], for which the “CI Polio2 (C)/(A)” value in data set [1] is reported as 5. The IC50 is 34 µg/mL (≈ 107 µM) in data set [1], 2 µg/mL (≈ 6.31 µM) in [2], 13.5 µg/mL (≈ 42.6 µM) in data set [4] and 3.6 µg/mL (≈ 11.3 µM) in data set [9]. For the same compound, in data set [2], the “CI EV70 (C)/(A)” value is listed as 88. In addition, the “CI CB4 (C)/(A)” value in [4] is recorded as 13. The “CI HRV14 (D)/(B)” value in [9] (CI = CD50 (HeLa)/IC50 (plaque)) was 15. The CC50 in data set [11] is 56.2 µg/mL (≈ 177 µM); in [10], 177 µg/mL (≈ 557 µM).

As for `Clc1cc(Cl)c2nc(CNc3ccncc3)[nH]c2c1` [XXVII], the IC50 in [7] is more than 100 µg/mL; in [6] it was more than 17.8 µg/mL. Moreover, the CC50 in “in vitro [3]” is more than 100 µg/mL; in “in vitro [5]” it was 17.8 µg/mL (≈ 60.7 µM).

In the case of `Cc1cc(Cl)c2nc(CNc3ccncc3)[nH]c2c1` [XXVI], the values for the IC50 in [7] and in data set [6] were more than 100 µg/mL and more than 56.2 µg/mL, respectively. The CC50 is 1410 µg/mL (≈ 5180 µM) in the data set “in vitro [3]” and 56.2 µg/mL (≈ 206 µM) in “in vitro [5]”.

As for `Cc1cc(Cl)cc2[nH]c(CNc3ccncc3)nc12` [XXV], the “CI EV70 (C)/(A)” value in [7] came out at 13. In addition, the IC50 in [7] was 56.2 µg/mL (≈ 206 µM); in data set [6], 17.8 µg/mL (≈ 65.3 µM). The cytotoxic concentration (CC50) in the data set “in vitro [3]” worked out at 707 µg/mL (≈ 2590 µM); in the data set “in vitro [5]” it was 17.8 µg/mL (≈ 65.3 µM).

Regarding `COc1cc2nc(CNc3ccncc3)[nH]c2cc1Cl` [XXXIII], in data set [7], the “CI EV70 (C)/(A)” value is more than 2 and half-maximal inhibition (IC50) was put at 56.2 µg/mL (≈ 195 µM). In data set [10], this compound displayed a CC50 of more than 100 µg/mL.

As for `Cn1c(CNc2ccncc2)nc2cc(Cl)ccc21` [XXXVIII], the IC50 was more than 100 µg/mL in [1], 115 µg/mL (≈ 422 µM) in [2], 56 µg/mL (≈ 205 µM) in [4] and more than 50 µg/mL in data set [9]. For the same compound, the “CI CB4 (C)/(A)” value in data set [4] is listed as more than 2. The same compound gave a CC50 in data set [10] of more than 100 µg/mL.

Regarding `CCc1ccc2c(c1)nc(CNc1ccncc1)n2C` [XXXVII], the IC50 in data set [1] was more than 100 µg/mL; in data set [2], 22 µg/mL (≈ 82.6 µM); in [4] it was more than 50 µg/mL; in data set [9], 20 µg/mL (≈ 75.1 µM). The “CI EV70 (C)/(A)” value in [2] is recorded as more than 5. For the same compound, in data set [10], the CC50 was more than 100 µg/mL.

One may read the IC50 as the midpoint of a concentration-inhibition curve. The term CC50 denotes the concentration that lowers cell viability or growth by half.
